Experiment [1] relates to MIA PaCa-2 cell line. Description: apoptosis in MIA PaCa-2 cells (ELISA of fragmented DNA). The format is cell-based, human. The following applies: 1-75 μM; vs non-treated cells. The source says: Apoptosis consists in enzymatic digestion of nuclear DNA by endogenous nucleases within the cell and it occurs when cell replication is impaired by agents that block cell cycle progression towards mitosis.
(An ELISA detects its analyte on a solid surface through an enzyme-linked reagent.)

In a further experiment the test system is p21rap1. Description: inhibition of p21rap1 geranylgeranylation in a malignant tumoral human cell line (electrophoresis, PVDF membrane, specific polyclonal antibody). It is filed as cell-based. The conditions noted are these: 75 μM; 24 hours. As for the experimental part:
The ability of the compounds according to the present invention of inhibiting the protein geranylgeranylation has been evaluated by means of an in vitro test on a malignant tumoral human cell line which has been treated with the following geranylgeranyl-derivatives:
The cells have been treated with increasing amounts of the geranylgeranyl derivatives BAL9504, BAL9505, BAL9603, BAL9605, BAL9608, BAL9609, BAL9610, BAL9611, BAL9613, BAL9503, BAL9614, (1-75 μM) and, after 24 hours, they have been collected and solubilized in a lysis solution containing non-ionic detergents. The soluble fraction has been collected by centrifugation and proteins separated by means of acrylamide gel electrophoresis and subsequently transferred onto a polyvinylidene fluoride (PVDF) membrane.
The presence of the geranylgeranylated protein p21rap1 has been then evidenced by means of a specific polyclonal antibody followed by chemiluminescent detection by means of a secondary antibody linked to alkaline phosphatase as previously described (M. A. Mansfield, FASEB J., S, A1428, 1994).

Experiment [2] deals with normal diploid fibroblast cells MRC-5. Description: citotoxicity on normal diploid fibroblast cells MRC-5 from human lung. The format is cell-based. The following applies: Table 2; for IC50: Homo sapiens, MRC5, MRC-5, read-out: IC50 (50% growth inhibition); for Sensibility Index (ratio between the IC50 in MRC-5 and MIA PaCa-2 cells): IC50 MRC-5 / IC50 MIA PaCa-2. The text has this:
(§1) The citotoxicity of the geranylgeranyl-derivatives BAL9504 and BAL9503 has also been evaluated on the normal diploid fibroblast cells MRC-5 from human lung following the method described by R. Danesi et. al., Mol. Pharmacol., 47, 1106, 1995. Table 2 reports the concentration of the compounds under study that produces 50% growth inhibition (IC50) in MRC-5 and MIA PaCa-2 cell lines together with the sensibility index, that is the ratio between the IC50 in MRC-5 and MIA PaCa-2 cells.

Experiment [3] concerns MIA PaCa-2 cell line. The experiment in a line: citotoxicity on human pancreas cancer MIA PaCa-2 cell line. It is filed as cell-based.
Excerpt: The relevance of such an effect on cell proliferation has been then evaluated by studying the citotoxicity of the above-mentioned compounds on the of human pancreas cancer MIA PaCa-2 cell line following the method described by R. Danesi et. al., Mol. Pharmacol., 47, 1106, 1995.
as §1

Where [4] appears, read: Table 1, read-out: IC50 (the concentration that produces 50% reduction in cell growth).
Setting [5] is: Table 2, read-out: IC50 (50% growth inhibition).

The structures appear in SMILES notation. Where a name gives a salt, the structure may show the parent alone. Read-outs that look alike come from different tables or passages of the source. Some results are limits rather than exact numbers.

`CC(C)=CCC/C(C)=C/CC/C(C)=C/CC/C(C)=C/CONC(=O)CP(=O)(O)O` [BAL9504, dipotassium salt of (E,E,E)-{2-oxo-2-[[(3,7,11,15-tetramethyl-2,6,10,14-hexadecatetraenyl)oxy]amino]ethyl}phosphonic acid]: in the experiment with MIA PaCa-2 cell line [1], the “induction of death for apoptosis” value is reported as “induce death for apoptosis”. Moreover, in the experiment with p21rap1, the “amount of the non-isoprenylated protein relative to the isoprenylated one (p21rap1)” value is recorded as “equal to that of the isoprenylated one”. The IC50 was 54.6 µM in experiment [2], 2.1 µM in the experiment on MIA PaCa-2 cell line [3] (setting [4]) and 2.1 µM in the experiment with MIA PaCa-2 cell line [3] (setting [5]). The “Sensibility Index (ratio between the IC50 in MRC-5 and MIA PaCa-2 cells)” value in experiment [2] amounted to 26.
Consider `CCC(CC)(P(=O)(O)O)P(=O)(O)CC/C=C(\C)CC/C=C(\C)CC/C=C(\C)CCC=C(C)C` [BAL9611, tripotassium salt of (E,E,E)-1-ethyl-1-[(4,8,12,16-tetramethyl-3,7,11,15-heptadecatetraenyl)hydroxyphosphoryl]propylphosphonic acid], for which the “induction of death for apoptosis” value with MIA PaCa-2 cell line [1] is reported as “induce death for apoptosis”. The IC50 in the experiment with MIA PaCa-2 cell line [3] (setting [4]) was found to be 1.5 µM.
On to `CC(C)=CCC/C(C)=C/CC/C(C)=C/CC/C(C)=C/COC(=O)NS(N)(=O)=O` [BAL9503, (E,E,E)-O-(3,7,11,15-tetramethyl-2,6,10,14-hexadecatetraenyl)-N-(aminosulfonyl)urethane], for which the “induction of death for apoptosis” value in the experiment on MIA PaCa-2 cell line [1] is “induce death for apoptosis”. Further, the “amount of the non-isoprenylated protein relative to the isoprenylated one (p21rap1)” value in the experiment on p21rap1 is “equal to that of the isoprenylated one”. Also, the results for the IC50 (in experiment [2]; with MIA PaCa-2 cell line [3] (setting [4]); in the experiment with MIA PaCa-2 cell line [3] (setting [5])) were 256 µM, 10.5 µM and 10.5 µM, respectively. For the same molecule, in experiment [2], the “Sensibility Index (ratio between the IC50 in MRC-5 and MIA PaCa-2 cells)” value is 24.4.
On to `CC(C)=CCC/C(C)=C/CC/C(C)=C/CC/C(C)=C/CONS(N)(=O)=O` [BAL9614, (E,E,E)-1-[(aminosulfonyl)aminoxy]-3,7,11,15-tetramethyl-2,6,10,14-hexadecatetraene], for which, in the experiment on MIA PaCa-2 cell line [3] (setting [4]), the IC50 worked out at 11.9 µM.
As for `CC(C)=CCC/C(C)=C/CC/C(C)=C/CC/C(C)=C/CNC(=O)CP(=O)(O)O` [BAL9605, dipotassium salt of (E,E,E)-[2-oxo-2-[(3,7,11,15-tetramethyl-2,6,10,14-hexadecatetraenyl)amino]ethyl]phosphonic acid], in the experiment on MIA PaCa-2 cell line [1], the “induction of death for apoptosis” value was “induce death for apoptosis”. The IC50 in the experiment on MIA PaCa-2 cell line [3] (setting [4]) is 7.7 µM.
In the case of `CCOP(=O)(O)CC(=O)NOC/C=C(\C)CC/C=C(\C)CC/C=C(\C)CCC=C(C)C` [BAL9505, monosodium salt of the monoethyl-ester of (E,E,E)-{2-oxo-2[[(3,7,11,15-tetramethyl-2,6,10,14-hexadecatetraenyl)oxy]amino]ethyl}phosphonic acid], the “amount of the non-isoprenylated protein relative to the isoprenylated one (p21rap1)” value with p21rap1 is “equal to that of the isoprenylated one”. Moreover, the IC50 in the experiment with MIA PaCa-2 cell line [3] (setting [4]) is above 30 µM.
`CC(C)=CCC/C(C)=C/CC/C(C)=C/CC/C(C)=C/CCP(=O)(O)C(C)(C)P(=O)(O)O` [BAL9610, tripotassium salt of (E,E,E)-1-methyl-1[(4,8,12,16-tetramethyl-3,7,11,15-heptadecatetraenyl)hydroxyphosphoryl]ethylphosphonic acid]: the IC50 with MIA PaCa-2 cell line [3] (setting [4]) is above 30 µM.
With `CC(C)=CCC/C(C)=C/CC/C(C)=C/CC/C(C)=C/CCP(=O)(O)O` [BAL9613, dipotassium salt of (E,E,E)-(4,8,12,16-tetramethyl-3,7,11,15-heptadecatetraenyl)phosphonic acid], the IC50 in the experiment on MIA PaCa-2 cell line [3] (setting [4]) was above 30 µM.
Regarding `CC(C)=CCC/C(C)=C/CC/C(C)=C/CC/C(C)=C/CONC(=O)CCP(=O)(O)O` [BAL9603, dipotassium salt of (E,E,E)-{3-oxo-3-[[(3,7,11,15-tetramethyl-2,6,10,14-hexadecatetraenyl)oxy]amino]propyl}phosphonic acid], the IC50 in the experiment with MIA PaCa-2 cell line [3] (setting [4]) was above 30 µM.
Same read-out and setting: the figure for `CC(C)=CCC/C(C)=C/CC/C(C)=C/CC/C(C)=C/CNC(=O)CCP(=O)(O)O` [BAL9608, dipotassium salt of (E,E,E)-[3-oxo-3-[(3,7,11,15-tetramethyl-2,6,10,14-hexadecatetraenyl)amino]propyl]phosphonic acid] is 16.7 µM.
Take `CC(C)=CCC/C(C)=C/CC/C(C)=C/CC/C(C)=C/CCP(=O)(O)CP(=O)(O)O` [BAL9609, tripotassium salt of (E,E,E)-[[(4,8,12,16-tetramethyl-3,7,11,15-heptadecatetraenyl)hydroxyphosphoryl]methyl]phosphonic acid]: the “induction of death for apoptosis” value in the experiment with MIA PaCa-2 cell line [1] is “induce death for apoptosis”. In addition, in the experiment with MIA PaCa-2 cell line [3] (setting [4]), the IC50 is 3.5 µM.

The values above are taken from patent publication US6242433A, “Geranylgeranyl-derivatives, process for the preparation thereof and related pharmaceutical compositions” (Laboratori Baldacci SpA, priority 1995, dated 2001).
